Reference: PubChem BioAssay AID1963965 (Molecular Pharmacology Branch, DTP, NCI, 2024)

Tested on: 996289-038-R-J1-PDC spheroid viability
Test: Anticancer human tumor 996289-038-R-J1-PDC patient-derived colon adenocarcinoma cell line growth inhibition [PI3K]
Conditions: spheroids with HUVEC and MSC; for viability, T/C: stronger effect = lower value
Procedure, shortened: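 Targeted small molecules plus PI3K inhibitors, half-log dose series from Cmax (default top 10 microM), were applied to heterotypic spheroids of cancer cells with HUVEC and MSCs. Viability indicated growth inhibition.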

[1] = curve of first compound, second compound 0.00316 µM
[2] = curve of first compound, second compound 0.01 µM
[3] = curve of first compound, second compound 0.0316 µM
[4] = curve of first compound, second compound 0.1 µM
[5] = curve of first compound, second compound 0.316 µM
[6] = curve of first compound, second compound 1 µM
[7] = second compound 0.00316 µM, first compound 0.0316 µM
[8] = second compound 0.00316 µM, first compound 0.1 µM
[9] = second compound 0.00316 µM, first compound 0.316 µM
[10] = second compound 0.00316 µM, first compound 1 µM
[11] = second compound 0.00316 µM, first compound 3.16 µM
[12] = second compound 0.00316 µM, first compound 10 µM
[13] = second compound 0.01 µM, first compound 0.0316 µM
[14] = second compound 0.01 µM, first compound 0.1 µM
[15] = second compound 0.01 µM, first compound 0.316 µM
[16] = second compound 0.01 µM, first compound 1 µM
[17] = second compound 0.01 µM, first compound 3.16 µM
[18] = second compound 0.01 µM, first compound 10 µM
[19] = second compound 0.0316 µM, first compound 0.0316 µM
[20] = second compound 0.0316 µM, first compound 0.1 µM
[21] = second compound 0.0316 µM, first compound 0.316 µM
[22] = second compound 0.0316 µM, first compound 1 µM
[23] = second compound 0.0316 µM, first compound 3.16 µM
[24] = second compound 0.0316 µM, first compound 10 µM
[25] = second compound 0.1 µM, first compound 0.0316 µM
[26] = second compound 0.1 µM, first compound 0.1 µM
[27] = second compound 0.1 µM, first compound 0.316 µM
[28] = second compound 0.1 µM, first compound 1 µM
[29] = second compound 0.1 µM, first compound 3.16 µM
[30] = second compound 0.1 µM, first compound 10 µM
[31] = second compound 0.316 µM, first compound 0.0316 µM
[32] = second compound 0.316 µM, first compound 0.1 µM
[33] = second compound 0.316 µM, first compound 0.316 µM
[34] = second compound 0.316 µM, first compound 1 µM
[35] = second compound 0.316 µM, first compound 3.16 µM
[36] = second compound 0.316 µM, first compound 10 µM
[37] = second compound 1 µM, first compound 0.0316 µM
[38] = second compound 1 µM, first compound 0.1 µM
[39] = second compound 1 µM, first compound 0.316 µM
[40] = second compound 1 µM, first compound 1 µM
[41] = second compound 1 µM, first compound 3.16 µM
[42] = second compound 1 µM, first compound 10 µM
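Further: spheroids exposed to compounds for seven days before viability read.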
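Wherever viability, T/C is given: luminescence used as a proxy for viable cell amount; percent viability relative to DMSO vehicle control as 100%.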

## Cn1nccc1Nc1nccc(-c2ccn(C(CO)c3ccc(Cl)c(F)c3)c(=O)c2)n1 (stereo not given) + COc1c(OCCCN2CCOCC2)ccc2c3n(c(=NC(=O)c4cnc(N)nc4)nc12)CCN3
[1]
  IC50: > 10 µM
[2]
  IC50: > 10 µM
[3]
  IC50: 5.91 µM
[4]
  IC50: 2.56 µM
[5]
  IC50: < 0.0316 µM
[6]
  IC50: < 0.0316 µM
[7]
  viability, T/C: 94.8%
[8]
  viability, T/C: 82.6%
[9]
  viability, T/C: 104%
[10]
  viability, T/C: 83.6%
[11]
  viability, T/C: 86.4%
[12]
  viability, T/C: 55.6%
[13]
  viability, T/C: 95.6%
[14]
  viability, T/C: 87.5%
[15]
  viability, T/C: 91.2%
[16]
  viability, T/C: 93.6%
[17]
  viability, T/C: 73.3%
[18]
  viability, T/C: 56.3%
[19]
  viability, T/C: 100%
[20]
  viability, T/C: 80.1%
[21]
  viability, T/C: 80%
[22]
  viability, T/C: 76%
[23]
  viability, T/C: 58%
[24]
  viability, T/C: 41.2%
[25]
  viability, T/C: 69.5%
[26]
  viability, T/C: 62.8%
[27]
  viability, T/C: 64.3%
[28]
  viability, T/C: 54%
[29]
  viability, T/C: 51.9%
[30]
  viability, T/C: 22.4%
[31]
  viability, T/C: 44.9%
[32]
  viability, T/C: 34.7%
[33]
  viability, T/C: 35%
[34]
  viability, T/C: 36.4%
[35]
  viability, T/C: 27.9%
[36]
  viability, T/C: 18.5%
[37]
  viability, T/C: 18.8%
[38]
  viability, T/C: 20.6%
[39]
  viability, T/C: 24%
[40]
  viability, T/C: 17.7%
[41]
  viability, T/C: 15%
[42]
  viability, T/C: 9.77%

## Cn1nccc1Nc1nccc(-c2ccn(C(CO)c3ccc(Cl)c(F)c3)c(=O)c2)n1 (stereo not given) + CC(Nc1ccc2c(c1)OCCn1cc(N3C(=O)OCC3C(F)F)nc1-2)C(N)=O
[1]
  IC50: > 10 µM
[2]
  IC50: > 10 µM
[3]
  IC50: 9.77 µM
[4]
  IC50: 9.01 µM
[5]
  IC50: 4.82 µM
[6]
  IC50: 2.25 µM
[7]
  viability, T/C: 104%
[8]
  viability, T/C: 98%
[9]
  viability, T/C: 117%
[10]
  viability, T/C: 106%
[11]
  viability, T/C: 94.4%
[12]
  viability, T/C: 58.4%
[13]
  viability, T/C: 104%
[14]
  viability, T/C: 95.3%
[15]
  viability, T/C: 105%
[16]
  viability, T/C: 103%
[17]
  viability, T/C: 70.8%
[18]
  viability, T/C: 53.4%
[19]
  viability, T/C: 98.9%
[20]
  viability, T/C: 110%
[21]
  viability, T/C: 86.8%
[22]
  viability, T/C: 93.6%
[23]
  viability, T/C: 67.8%
[24]
  viability, T/C: 50%
[25]
  viability, T/C: 87.9%
[26]
  viability, T/C: 89.6%
[27]
  viability, T/C: 97.2%
[28]
  viability, T/C: 81%
[29]
  viability, T/C: 78.7%
[30]
  viability, T/C: 46.8%
[31]
  viability, T/C: 79.5%
[32]
  viability, T/C: 74.5%
[33]
  viability, T/C: 61.4%
[34]
  viability, T/C: 67.6%
[35]
  viability, T/C: 58.2%
[36]
  viability, T/C: 39.5%
[37]
  viability, T/C: 56.2%
[38]
  viability, T/C: 64.4%
[39]
  viability, T/C: 53.7%
[40]
  viability, T/C: 73.3%
[41]
  viability, T/C: 45%
[42]
  viability, T/C: 30.2%

## CCCS(=O)(=O)Nc1ccc(F)c(C(=O)c2c[nH]c3ncc(-c4ccc(Cl)cc4)cc23)c1F + COc1c(OCCCN2CCOCC2)ccc2c3n(c(=NC(=O)c4cnc(N)nc4)nc12)CCN3
[1]
  IC50: 6.03 µM
[2]
  IC50: 6.09 µM
[3]
  IC50: 5.1 µM
[4]
  IC50: 1.77 µM
[5]
  IC50: < 0.0316 µM
[6]
  IC50: < 0.0316 µM
[7]
  viability, T/C: 98.9%
[8]
  viability, T/C: 81.6%
[9]
  viability, T/C: 94.6%
[10]
  viability, T/C: 108%
[11]
  viability, T/C: 87.5%
[12]
  viability, T/C: 19.9%
[13]
  viability, T/C: 96.4%
[14]
  viability, T/C: 92.6%
[15]
  viability, T/C: 87.4%
[16]
  viability, T/C: 85.7%
[17]
  viability, T/C: 90.6%
[18]
  viability, T/C: 19.4%
[19]
  viability, T/C: 71%
[20]
  viability, T/C: 78.2%
[21]
  viability, T/C: 72.5%
[22]
  viability, T/C: 80.2%
[23]
  viability, T/C: 71.1%
[24]
  viability, T/C: 19.8%
[25]
  viability, T/C: 63.5%
[26]
  viability, T/C: 49.7%
[27]
  viability, T/C: 66.9%
[28]
  viability, T/C: 53.4%
[29]
  viability, T/C: 44.4%
[30]
  viability, T/C: 12.2%
[31]
  viability, T/C: 32.3%
[32]
  viability, T/C: 42.4%
[33]
  viability, T/C: 35.9%
[34]
  viability, T/C: 36.7%
[35]
  viability, T/C: 26%
[36]
  viability, T/C: 8.03%
[37]
  viability, T/C: 19.9%
[38]
  viability, T/C: 22.4%
[39]
  viability, T/C: 20.2%
[40]
  viability, T/C: 15.9%
[41]
  viability, T/C: 14%
[42]
  viability, T/C: 6.42%

## CC(C)n1nc(-c2ccc3oc(N)nc3c2)c2c(N)ncnc21
Compound 0.000316 µM
  viability, T/C: 105% [middle of 4 runs]
Compound 0.001 µM
  viability, T/C: 85.2% [middle of 4 runs]
Compound 0.00316 µM
  viability, T/C: 89.4% [middle of 4 runs]
Compound 0.01 µM
  viability, T/C: 88.6% [middle of 4 runs]
Compound 0.0316 µM
  viability, T/C: 67% [middle of 4 runs]
Compound 0.1 µM
  viability, T/C: 35.7% [middle of 4 runs]
Curve of compound
  IC50: 58.6 nM [middle of 4 runs]

## CNC(=O)c1ccc(N2C(=S)N(c3ccc(C#N)c(C(F)(F)F)c3)C(=O)C2(C)C)cc1F + Cc1nc(NC(=O)N2CCCC2C(N)=O)sc1-c1ccnc(C(C)(C)C(F)(F)F)c1
[3]
  IC50: > 10 µM
[4]
  IC50: > 10 µM
[5]
  IC50: > 10 µM
[6]
  IC50: > 10 µM
Curve of first compound, second compound 3.16 µM
  IC50: > 10 µM
Curve of first compound, second compound 10 µM
  IC50: < 0.0316 µM
[19]
  viability, T/C: 92%
[20]
  viability, T/C: 95.8%
[21]
  viability, T/C: 92.2%
[22]
  viability, T/C: 92.3%
[23]
  viability, T/C: 93.8%
[24]
  viability, T/C: 90.4%
[25]
  viability, T/C: 92.9%
[26]
  viability, T/C: 82.7%
[27]
  viability, T/C: 97.2%
[28]
  viability, T/C: 83.3%
[29]
  viability, T/C: 95.2%
[30]
  viability, T/C: 90.3%
[31]
  viability, T/C: 90.9%
[32]
  viability, T/C: 81%
[33]
  viability, T/C: 88.4%
[34]
  viability, T/C: 84.8%
[35]
  viability, T/C: 73.9%
[36]
  viability, T/C: 96.5%
[37]
  viability, T/C: 75.6%
[38]
  viability, T/C: 76.9%
[39]
  viability, T/C: 69.7%
[40]
  viability, T/C: 79.9%
[41]
  viability, T/C: 80.7%
[42]
  viability, T/C: 70.8%
Second compound 3.16 µM, first compound 0.0316 µM
  viability, T/C: 65.5%
Second compound 3.16 µM, first compound 0.1 µM
  viability, T/C: 64.7%
Second compound 3.16 µM, first compound 0.316 µM
  viability, T/C: 58.9%
Second compound 3.16 µM, first compound 1 µM
  viability, T/C: 52.4%
Second compound 3.16 µM, first compound 3.16 µM
  viability, T/C: 61.5%
Second compound 3.16 µM, first compound 10 µM
  viability, T/C: 51.3%
Second compound 10 µM, first compound 0.0316 µM
  viability, T/C: 39.9%
Second compound 10 µM, first compound 0.1 µM
  viability, T/C: 46.9%
Second compound 10 µM, first compound 0.316 µM
  viability, T/C: 49.6%
Second compound 10 µM, first compound 1 µM
  viability, T/C: 38.9%
Second compound 10 µM, first compound 3.16 µM
  viability, T/C: 48.3%
Second compound 10 µM, first compound 10 µM
  viability, T/C: 36.8%
